Values quoted from earlier work, collected in patent US20200003795A1, “DETERMINATION OF ANALYTES IN LIQUID SAMPLES BY MASS SPECTROMETRY” (Quest Diagnostics Investments Incorporated, priority 2001, published 2020).
Like-named read-outs stand apart in the source and are kept apart here.

How the values were obtained:
[1] = circulating drug, at a therapeutic level of 1-10 μg/mL
[2] = not given; remark: listed apart in the source

| Structure (SMILES) | bound to protein [1] | therapeutic level (circulating) | half-life (multiple doses) | half-life (single dose) | Therapeutic levels in blood ([2]; blood, trough) | mean-time-to-peak concentration ([2]; on administration) |
| --- | --- | --- | --- | --- | --- | --- |
| Nc1nnc(-c2cccc(Cl)c2Cl)c(N)n1 [lamotrigine, 6-(2,3-dichlorophenyl)-1,2,4-triazine-3,5-diamine] | about 55% | 1 to 10 µg/mL | 7.5 to 23.1 h | 6.4 to 30.4 h |  |  |
| CO[C@H]1C[C@@H]2CC[C@@H](C)[C@@](O)(O2)C(=O)C(=O)N2CCCC[C@H]2C(=O)O[C@H]([C@H](C)C[C@@H]2CC[C@@H](O)[C@H](OC)C2)CC(=O)[C@H](C)/C=C(\C)[C@@H](O)[C@@H](OC)C(=O)[C@H](C)C[C@H](C)/C=C/C=C/C=C/1C [sirolimus] |  |  |  |  | 3 to 18 ng/mL | 1 to 2 h |
